Measurements reported in patent US20250281480A1, “PHARMACEUTICAL DRY POWDER INHALATION FORMULATION” (Bayer Aktiengesellschaft, priority 2021, published 2025).
Values joined by “and” are separate entries in the source; they are usually repeats but may differ in a detail not shown here. Identical values can stand only once.

Assays:
[1] = test system: anesthetized thromboxane A2 challenged PAH-minipig; assay: Haemodynamics in the anesthetized thromboxane challenged minipig (PAH minipig), inhaled nebulized solution: lung selectivity and duration of action; type: in vivo, Göttingen Minipigs
Experimental: (§1) Healthy Göttingen Minipigs® Ellegaard (Ellegaard, Denmark) of both sexes and having a weight of 2-6 kg were used. The animals were sedated by i.m. administration of about 25 mg/kg ketamine and about 10 mg/kg azaperone. Anaesthesia was initiated by i.v. administration of about 2 mg/kg ketamine and about 0.3 mg/kg midazolam. Maintenance of anaesthesia was by i.v. administration of about 7.5-30 mg/kg/h ketamine and about 1-4 mg/kg/h midazolam (rate of infusion 1-4 ml/kg/h) and about 150 μg/kg/h pancuronium bromide (for example Pancuronium-Actavis). After intubation, the animals were ventilated by the ventilator at a constant respiratory volume (10-12 ml/kg, 35 breaths/min; Avea®, Viasys Healthcare, USA, or Engström Carestation, GE Healthcare, Freiburg, Germany) such that an end-tidal CO2 concentration of about 5% was achieved. Ventilation was performed with room air, enriched with about 40% oxygen (normoxia). For the measurement of the haemodynamic parameters such as pulmonary arterial pressure (PAP), blood pressure (BP) and heart rate (HR), catheters were inserted into the carotid artery to measure the blood pressure, and a Swan-Ganz® catheter was introduced in a flow-directed manner via the jugular vein into the pulmonary artery. The haemodynamic signals were recorded and evaluated by means of pressure transducers (Combitransducer, B. Braun, Melsungen, Germany)/amplifiers and Ponemah® as data acquisition software.
After the instruments have been placed into the animals, continuous infusion of a thromboxane A2 analog was initiated to increase the pulmonary arterial pressure. About 0.3-0.75 μg/kg/min of 9,11-didesoxy-9α,11α-epoxymethanoprostaglandine F2α (U-44069; Sigma, cat. no. D0400, or Cayman Chemical Company, cat. no. 16440), dissolved in physiological saline, were infused to achieve an increase of the mean pulmonary arterial pressure to values of over 25 mmHg. 30 minutes after the start of the infusion, a plateau was reached, and the experiment was started.
The test substances were administered as i.v. infusion or by inhalation. For the preparation of the solution for inhalation, the following procedure was adopted: For an animal having a weight of 4 kg, to prepare the stock solution (300 μg/kg), 1.2 mg of the test compound were weighed out and dissolved in a total volume of 3 ml (1% DMSO, 99% 0.2% strength citric acid solution, 1 n aqueous sodium hydroxide solution to adjust the pH to 8). The solution was then diluted to the concentration employed using 0.2% strength citric acid which had been adjusted to pH 8 beforehand with aqueous sodium hydroxide solution. In each test, 3 ml of the solution of test compound per 4 kg animal were nebulized in the inhalation arm of the respiratory circuit using the Aeroneb® Pro nebulizer system. The mean nebulization time was about 7 min from the start of the nebulization.
With respect to a prediction of the duration of action for human studies comparative example 11 was compared in the PAH minipig model after inhaled application to Ventavis® (=Iloprost, 10 μg/kg nominal dose), which we used as a clinical reference. […] Therefore, the duration of action is more than 6 times longer compared to Ventavis in this preclinical animal model.

[2] = test system: anesthetized PAH minipigs; assay: PAH minipig, intratracheal application of dry powder formulations and of different hydrates (PAP, BP); type: in vivo, Göttingen Minipigs; conditions: for efficacy with regard to PAP reduction and systemic BP reduction: micronized hydrates; for PAP(mean) / BP (mean): per animal; for % changes vs. baseline on PAP: intratracheal application
Experimental: as §1
About 0.3-0.75 μg/kg/min of 9,11-didesoxy-9α,11α-epoxymethanoprostaglandine F2α (U-44069; Sigma, cat. no. D0400, or Cayman Chemical Company, cat. no. 16440), dissolved in physiological saline, were infused to achieve an increase of the mean pulmonary arterial pressure to values of over 25 mmHg.
After characterization of the effects of comparative example 11 after nebulization of compound solutions, in a further step the effects of crystalline forms of comparative example 11, e.g. sesquihydrate, e.g. example 6e on PAP and BP after inhaled application of different dry powder lactose formulations (table 52) were studied in anesthetized PAH minipigs.
As reference pure Lactose vehicle was applied in the beginning of each experiment.

[3] = % vs. prevalues, 375 μg/kg i.t., time 60, each animal
[4] = % vs. prevalues, 375 μg/kg i.t., time 70, each animal
[5] = 375 μg/kg i.t., time 0, Sesquihydrate
[6] = 375 μg/kg i.t., time −10, Sesquihydrate

SMILES: O=C(O)CCCCN(CCc1cc(F)ccc1OCc1ccc(-c2nc3cc(Cl)ccc3o2)cc1)C1CCCc2nc(C(=O)O)ccc21 (single isomer, unassigned) [compound 3, (5)-{(4-carboxybutyl)[2-(2-{[4-(5-chloro-1,3-benzoxazol-2-yl)benzyl]oxy}-5-fluorophenyl)ethyl]amino}-5,6,7,8-tetrahydroquinoline-2-carboxylic Acid, reference compound]
- effect on PAP completely resolved after ([1]; inhaled application): 120 min
- time of maximal effect on PAP after inhaled application ([1]; nebulized solution): 30 min

SMILES: O.O=C(O)c1ccc(CCN(CCc2ccccc2OCc2ccc(-c3ccc(C(F)(F)F)cc3)cc2Cl)[C@H]2CCCc3nc(C(=O)O)ccc32)cc1.O=C(O)c1ccc(CCN(CCc2ccccc2OCc2ccc(-c3ccc(C(F)(F)F)cc3)cc2Cl)[C@H]2CCCc3nc(C(=O)O)ccc32)cc1 [Example 6a, (5S)—{[2-(4-Carboxyphenyl)ethyl][2-(2-{[3-chloro-4′-(trifluoromethyl)biphenyl-4-yl]methoxy}phenyl)-ethyl]amino}-5,6,7,8-tetrahydroquinoline-2-carboxylic Acid Semihydrate]
- efficacy with regard to PAP reduction and systemic BP reduction ([2]; 375 μg/kg i.t.): comparable efficacy
- PAP(mean) ([2]; 375 μg/kg i.t., time 170): 24.0 mmHg and 32.4 mmHg and 29.9 mmHg
- BP (mean) ([2]; 375 μg/kg i.t., time 180): 94 mmHg
- PAP(mean) ([2]; 375 μg/kg i.t., time 180): 23.7 mmHg
- BP (mean) ([2]; 375 μg/kg i.t., time 190): 94 mmHg and 93 mmHg
- PAP(mean) ([2]; 375 μg/kg i.t., time 190): 24.4 mmHg and 32.4 mmHg and 29.2 mmHg
- PAP(mean) ([2]; 375 μg/kg i.t., time 200): 24.8 mmHg and 32.4 mmHg and 29.4 mmHg
- BP (mean) ([2]; 375 μg/kg i.t., time 210): 91 mmHg
- PAP(mean) ([2]; 375 μg/kg i.t., time 210): 24.8 mmHg and 29.2 mmHg
- PAP(mean) ([2]; 375 μg/kg i.t., time 220): 24.7 mmHg and 29.1 mmHg
- PAP(mean) ([2]; 375 μg/kg i.t., time 230): 24.0 mmHg
- BP (mean) ([2]; 375 μg/kg i.t., time 240): 77 mmHg
- PAP(mean) ([2]; 375 μg/kg i.t., time 240): 24.1 mmHg and 28.1 mmHg
- BP (mean) ([2]; 375 μg/kg i.t., time 250): 76 mmHg
- PAP(mean) ([2]; 375 μg/kg i.t., time 250): 24.2 mmHg and 28.1 mmHg
- BP (mean) ([2]; 375 μg/kg i.t., time 260): 76 mmHg
- PAP(mean) ([2]; 375 μg/kg i.t., time 260): 24.1 mmHg and 30.6 mmHg and 28.1 mmHg
- BP (mean) ([2]; 375 μg/kg i.t., time 270): 76 mmHg
- PAP(mean) ([2]; 375 μg/kg i.t., time 270): 24.4 mmHg and 30.6 mmHg and 27.8 mmHg
- BP (mean) ([2]; 375 μg/kg i.t., time 280): 75 mmHg
- PAP(mean) ([2]; 375 μg/kg i.t., time 280): 24.3 mmHg and 28.0 mmHg
- BP (mean) ([2]; 375 μg/kg i.t., time 290): 75 mmHg
- PAP(mean) ([2]; 375 μg/kg i.t., time 290): 24.1 mmHg and 27.6 mmHg
- BP (mean) ([2]; 375 μg/kg i.t., time 300): 77 mmHg
- PAP(mean) ([2]; 375 μg/kg i.t., time 300): 23.7 mmHg and 30.5 mmHg and 27.7 mmHg
- BP [2, 3]: 100.6% and 99.7% and 97.2%
- PAP [2, 3]: 100.7% and 99.4% and 99.2%
- BP [2, 4]: 102.6%
- PAP [2, 4]: 94.7%

SMILES: O.O.O.O=C(O)c1ccc(CCN(CCc2ccccc2OCc2ccc(-c3ccc(C(F)(F)F)cc3)cc2Cl)[C@H]2CCCc3nc(C(=O)O)ccc32)cc1.O=C(O)c1ccc(CCN(CCc2ccccc2OCc2ccc(-c3ccc(C(F)(F)F)cc3)cc2Cl)[C@H]2CCCc3nc(C(=O)O)ccc32)cc1 [Example 6e, (5S)—{[2-(4-Carboxyphenyl)ethyl][2-(2-{[3-chloro-4′-(trifluoromethyl)biphenyl-4-yl]methoxy}phenyl)-ethyl]amino}-5,6,7,8-tetrahydroquinoline-2-carboxylic Acid Sesquihydrate]
- efficacy with regard to PAP reduction and systemic BP reduction ([2]; 375 μg/kg i.t.): comparable efficacy
- BP (mean) [2, 5]: 104 mmHg
- PAP(mean) [2, 5]: 41.9 mmHg
- BP (mean) [2, 6]: 107 mmHg
- PAP(mean) [2, 6]: 36.4 mmHg and 37.5 mmHg
- % changes vs. baseline on PAP ([2]; time 80 (baseline = 100), each animal): 100.0%
- % changes vs. baseline on PAP ([2]; time 90, each animal, Sesquihydrate): 98.9% and 103.6% and 99.8%
- % changes vs. baseline on PAP ([2]; time 100, each animal, Sesquihydrate): 99.5% and 101.4% and 97.3%
- % changes vs. baseline on PAP ([2]; time 110, each animal, Sesquihydrate): 89.3% and 98.7% and 86.8%
- % changes vs. baseline on PAP ([2]; time 120, each animal, Sesquihydrate): 84.0% and 95.6% and 75.7%
- % changes vs. baseline on PAP ([2]; time 130, each animal, Sesquihydrate): 78.9% and 93.7% and 70.2%
- % changes vs. baseline on PAP ([2]; time 140, each animal, Sesquihydrate): 75.2% and 91.8% and 67.5%
- % changes vs. baseline on PAP ([2]; time 150, each animal, Sesquihydrate): 74.0% and 76.0% and 65.4%
- % changes vs. baseline on PAP ([2]; time 160, each animal, Sesquihydrate): 71.0% and 79.5% and 65.9%
- % changes vs. baseline on PAP ([2]; time 170, each animal, Sesquihydrate): 68.5% and 74.3% and 61.5%
- % changes vs. baseline on PAP ([2]; time 180, each animal, Sesquihydrate): 63.2% and 80.8% and 62.0%
- % changes vs. baseline on PAP ([2]; time 190, each animal, Sesquihydrate): 61.5% and 80.8% and 58.6%
- % changes vs. baseline on PAP ([2]; time 200, each animal, Sesquihydrate): 62.3% and 80.3% and 60.2%
- % changes vs. baseline on PAP ([2]; time 210, each animal, Sesquihydrate): 61.0% and 80.7% and 59.4%
- % changes vs. baseline on PAP ([2]; time 220, each animal, Sesquihydrate): 59.5% and 86.3% and 57.8%
- % changes vs. baseline on PAP ([2]; time 230, each animal, Sesquihydrate): 58.6% and 82.6% and 57.8%
- % changes vs. baseline on PAP ([2]; time 240, each animal, Sesquihydrate): 59.3% and 81.5% and 57.6%
- % changes vs. baseline on PAP ([2]; time 250, each animal, Sesquihydrate): 59.3% and 82.2% and 56.1%
- % changes vs. baseline on PAP ([2]; time 260, each animal, Sesquihydrate): 58.8% and 82.7% and 57.6%
- % changes vs. baseline on PAP ([2]; time 270, each animal, Sesquihydrate): 59.9% and 78.3% and 55.4%
- % changes vs. baseline on PAP ([2]; time 280, each animal, Sesquihydrate): 58.4% and 78.3% and 55.9%
- % changes vs. baseline on PAP ([2]; time 290, each animal, Sesquihydrate): 57.4% and 79.6% and 53.9%
- % changes vs. baseline on PAP ([2]; time 300, each animal, Sesquihydrate): 60.1% and 78.7% and 54.5%
- % changes vs. baseline on PAP ([2]; time 310, each animal, Sesquihydrate): 58.4% and 77.6% and 53.7%
- % changes vs. baseline on PAP ([2]; time 320, each animal, Sesquihydrate): 61.8% and 76.3% and 55.1%
- % changes vs. baseline on PAP ([2]; time 330, each animal, Sesquihydrate): 61.3% and 74.8% and 53.0%
- PAP ([2]; time 20 min, lactose vehicle first, test powder 1.5 mg/4 kg i.t. @90 min, per animal (n = 3), Sesquihydrate): 42.0 mmHg and 37.5 mmHg
- BP ([2]; time 30 min, lactose vehicle first, test powder 1.5 mg/4 kg i.t. @90 min, per animal (n = 3)): 104 mmHg
- PAP ([2]; time 30 min, lactose vehicle first, test powder 1.5 mg/4 kg i.t. @90 min, per animal (n = 3), Sesquihydrate): 41.9 mmHg and 37.1 mmHg and 37.5 mmHg
- PAP ([2]; time 40 min, lactose vehicle first, test powder 1.5 mg/4 kg i.t. @90 min, per animal (n = 3), Sesquihydrate): 42.0 mmHg and 37.3 mmHg and 38.6 mmHg
- PAP ([2]; time 50 min, lactose vehicle first, test powder 1.5 mg/4 kg i.t. @90 min, per animal (n = 3), Sesquihydrate): 41.4 mmHg and 37.4 mmHg and 39.8 mmHg
- PAP ([2]; time 60 min, lactose vehicle first, test powder 1.5 mg/4 kg i.t. @90 min, per animal (n = 3), Sesquihydrate): 41.4 mmHg and 36.8 mmHg and 41.2 mmHg
- PAP ([2]; time 70 min, lactose vehicle first, test powder 1.5 mg/4 kg i.t. @90 min, per animal (n = 3), Sesquihydrate): 41.0 mmHg and 37.4 mmHg and 41.3 mmHg
- PAP ([2]; time 80 min, lactose vehicle first, test powder 1.5 mg/4 kg i.t. @90 min, per animal (n = 3), Sesquihydrate): 40.9 mmHg and 38.1 mmHg and 40.8 mmHg
- BP ([2]; time 90 min, lactose vehicle first, test powder 1.5 mg/4 kg i.t. @90 min, per animal (n = 3)): 102 mmHg
- PAP ([2]; time 90 min, lactose vehicle first, test powder 1.5 mg/4 kg i.t. @90 min, per animal (n = 3), Sesquihydrate): 40.4 mmHg and 39.5 mmHg
